The record followed here is patent US10150764B2, “Substituted benzene compounds” (Epizyme, Inc., priority 2013, dated 2018).

Molecules are shown by their SMILES. Where a name gives a salt, the structure may show the parent alone.

In experiment [1] the target is wild-type EZH2 (PRC2 enzyme) (Homo sapiens (Human), UniProt Q15910). Description: PRC2 enzyme assay on peptide substrate, wild-type EZH2 (H3K27me0 peptide, 3H-SAM Flashplate). The experiment is classed as biochemical. Particulars: wild-type PRC2 4 nM, read-out: WT EZH2 IC50.
Protocol: (§1) Human PRC2 enzymes were purified as 4-component enzyme complexes co-expressed in Spodoptera frugiperda (sf9) cells using a baculovirus expression system. […] The EED subunit contained an N-terminal FLAG tag that was used to purify the entire 4-component complex from sf9 cell lysates.
(§2) The assays were all performed in a buffer consisting of 20 mM bicine (pH=7.6), 0.5 mM DTT, 0.005% BSG and 0.002% Tween20, prepared on the day of use. […] DMSO (1 μL) was added to columns 11, 12, 23, 24, rows A-H for the maximum signal control, and SAH, a known product and inhibitor of PRC2 (1 μL) was added to columns 11, 12, 23, 24, rows I-P for the minimum signal control. A cocktail (40 μL) containing the wild-type PRC2 enzyme and H3K27me0 peptide or any of the Y641 mutant enzymes and H3K27me2 peptide was added by Multidrop Combi (Thermo). The compounds were allowed to incubate with PRC2 for 30 min at 25° C., then a cocktail (10 μL) containing a mixture of non-radioactive and ^3H-SAM was added to initiate the reaction (final volume=51 μL). […] The assays were stopped by the addition of non-radioactive SAM (10 μL) to a final concentration of 600 μM, which dilutes the ^3H-SAM to a level where its incorporation into the peptide substrate is no longer detectable. 50 of the reaction in the 384-well polypropylene plate was then transferred to a 384-well Flashplate and the biotinylated peptides were allowed to bind to the streptavidin surface for at least 1 h before being washed three times with 0.1% Tween20 in a Biotek ELx405 plate washer. The plates were then read in a PerkinElmer TopCount platereader to measure the quantity of ^3H-labeled peptide bound to the Flashplate surface, measured as disintegrations per minute (dpm) or alternatively, referred to as counts per minute (cpm).
The test system of experiment [2] is H3K27me3 in WSU-DLCL2 cells. Kind of experiment: WSU-DLCL2 methylation assay (H3K27me3 ELISA). Format: cell-based, human. As to conditions: Homo sapiens, WSUDLCL2, 96 hours incubation, H3K27me3 normalised to total H3.
Description: WSU-DLCL2 Methylation Assay
WSU-DLCL2 suspension cells were purchased from DSMZ (German Collection of Microorganisms and Cell Cultures, Braunschweig, Germany). RPMI/Glutamax Medium, Penicillin-Streptomycin, Heat Inactivated Fetal Bovine Serum, and D-PBS were purchased from Life Technologies, Grand Island, N.Y., USA. Extraction Buffer and Neutralization Buffer (5×) were purchased from Active Motif, Carlsbad, Calif., USA. Rabbit anti-Histone H3 antibody was purchased from Abcam, Cambridge, Mass., USA. Rabbit anti-H3K27me3 and HRP-conjugated anti-rabbit-IgG were purchased from Cell Signaling Technology, Danvers, Mass., USA. TMB “Super Sensitive” substrate was sourced from BioFX Laboratories, Owings Mills, Md., USA. IgG-free Bovine Serum Albumin was purchased from Jackson ImmunoResearch, West Grove, Pa., USA. PBS with Tween (10×PBST) was purchased from KPL, Gaithersburg, Md., USA. Sulfuric Acid was purchased from Ricca Chemical, Arlington, Tex., USA. Immulon ELISA plates were purchased from Thermo, Rochester, N.Y., USA. V-bottom cell culture plates were purchased from Corning Inc., Corning, N.Y., USA. V-bottom polypropylene plates were purchased from Greiner Bio-One, Monroe, N.C., USA.
WSU-DLCL2 suspension cells were maintained in growth medium (RPMI 1640 supplemented with 10% v/v heat inactivated fetal bovine serum and 100 units/mL penicillin-streptomycin) and cultured at 37° C. under 5% CO2. Under assay conditions, cells were incubated in Assay Medium (RPMI 1640 supplemented with 20% v/v heat inactivated fetal bovine serum and 100 units/mL penicillin-streptomycin) at 37° C. under 5% CO2 on a plate shaker.
WSU-DLCL2 cells were seeded in assay medium at a concentration of 50,000 cells per mL to a 96-well V-bottom cell culture plate with 200 μL per well. […] Plates were incubated on a titer-plate shaker at 37° C., 5% CO2 for 96 hours. After four days of incubation, plates were spun at 241×g for five minutes and medium was aspirated gently from each well of cell plate without disturbing cell pellet. Pellet was resuspended in: 200 μL DPBS and plates were spun again at 241×g for five minutes. The supernatant was aspirated and cold (4° C.) Extraction buffer (100 μL) was added per well. Plates were incubated at 4° C. on orbital shaker for two hours. Plates were spun at 3427×g×10 minutes. Supernatant (80 μL per well) was transferred to its respective well in 96 well V-bottom polypropylene plate. Neutralization Buffer 5× (20 μL per well) was added to V-bottom polypropylene plate containing supernatant. V-bottom polypropylene plates containing crude histone preparation (CHP) were incubated on orbital shaker×five minutes. Crude Histone Preparations were added (2 μL per well) to each respective well into duplicate 96 well ELISA plates containing 100 μL Coating Buffer (1×PBS+BSA 0.05% w/v). Plates were sealed and incubated overnight at 4° C. The following day, plates were washed three times with 300 μL per well 1×PBST. […] For H3K27me3 detection, 100 μL of HRP conjugated anti-rabbit IgG antibody diluted to 1:4000 in ELISA diluent was added per well. Plates were incubated at room temperature for 90 minutes. […] TMB substrate 100 μL was added per well. Histone H3 plates were incubated for five minutes at room temperature. H3K27me3 plates were incubated for 10 minutes at room temperature. The reaction was stopped with sulfuric acid 1N (100 μL per well). Absorbance for each plate was read at 450 nm.
Each plate included eight control wells DMSO only treatment (Minimum Inhibition) as well as eight control wells for maximum inhibition (Background wells).
The average of the ratio values for each control type was calculated and used to determine the percent inhibition for each test well in the plate. Test compound was serially diluted three-fold in DMSO for a total of ten test concentrations, beginning at 25 μM.
Experiment [3] addresses EZH2 Y641F mutant (PRC2 enzyme) (Homo sapiens (Human), UniProt Q15910, Y641F). Kind of experiment: PRC2 enzyme assay on peptide substrate, EZH2 Y641F mutant (H3K27me2 peptide, 3H-SAM Flashplate). The experiment is classed as biochemical. As to conditions: Y641F mutant PRC2 4 nM.
Protocol: as §1, §2
The test system of experiment [4] is WSU-DLCL2 cells. Description: Cell proliferation analysis, WSU-DLCL2 (Cell Titer Glo). The experiment is classed as cell-based. As to conditions: Homo sapiens, WSUDLCL2, 144 h, 6 days incubation, ATP readout. From the text:
Cell Proliferation Analysis
WSU-DLCL2 suspension cells were purchased from DSMZ (German Collection of Microorganisms and Cell Cultures, Braunschweig, Germany), RPMI/Glutamax Medium, Penicillin-Streptomycin, Heat Inactivated Fetal Bovine Serum were purchased from Life Technologies, Grand Island, N.Y., USA, V-bottom polypropylene 384-well plates were purchased from Greiner Bio-One, Monroe, N.C., USA. Cell culture 384-well white opaque plates were purchased from Perkin Elmer, Waltham, Mass., USA. Cell-Titer Glo® was purchased from Promega Corporation, Madison, Wis., USA. SpectraMax M5 plate reader was purchased from Molecular Devices LLC, Sunnyvale, Calif., USA.
WSU-DLCL2 suspension cells were maintained in growth medium (RPMI 1640 supplemented with 10% v/v heat inactivated fetal bovine serum and cultured at 37° C. under 5% CO2. Under assay conditions, cells were incubated in Assay Medium (RPMI 1640 supplemented with 20% v/v heat inactivated fetal bovine serum and 100 units/mL penicillin-streptomycin) at 37° C. under 5% CO2.
For the assessment of the effect of compounds on the proliferation of the WSU-DLCL2 cell line, exponentially growing cells were plated in 384-well white opaque plates at a density of 1250 cell/ml in a final volume of 50 μl of assay medium. A compound source plate was prepared by performing triplicate nine-point 3-fold serial dilutions in DMSO, beginning at 10 mM (final top concentration of compound in the assay was 20 μM and the DMSO was 0.2%). A 100 nL aliquot from the compound stock plate was added to its respective well in the cell plate. […] After addition of compounds, assay plates were incubated for 6 days at 37° C., 5% CO2, relative humidity >90% for 6 days. Cell viability was measured by quantization of ATP present in the cell cultures, adding 35 μl of Cell Titer Glo® reagent to the cell plates. Luminescence was read in the SpectraMax M5. The concentration inhibiting cell viability by 50% was determined using a 4-parametric fit of the normalized dose response curves.

Sequence of EZH2 Y641F mutant (PRC2 enzyme) (Q15910 whole entry Y641F): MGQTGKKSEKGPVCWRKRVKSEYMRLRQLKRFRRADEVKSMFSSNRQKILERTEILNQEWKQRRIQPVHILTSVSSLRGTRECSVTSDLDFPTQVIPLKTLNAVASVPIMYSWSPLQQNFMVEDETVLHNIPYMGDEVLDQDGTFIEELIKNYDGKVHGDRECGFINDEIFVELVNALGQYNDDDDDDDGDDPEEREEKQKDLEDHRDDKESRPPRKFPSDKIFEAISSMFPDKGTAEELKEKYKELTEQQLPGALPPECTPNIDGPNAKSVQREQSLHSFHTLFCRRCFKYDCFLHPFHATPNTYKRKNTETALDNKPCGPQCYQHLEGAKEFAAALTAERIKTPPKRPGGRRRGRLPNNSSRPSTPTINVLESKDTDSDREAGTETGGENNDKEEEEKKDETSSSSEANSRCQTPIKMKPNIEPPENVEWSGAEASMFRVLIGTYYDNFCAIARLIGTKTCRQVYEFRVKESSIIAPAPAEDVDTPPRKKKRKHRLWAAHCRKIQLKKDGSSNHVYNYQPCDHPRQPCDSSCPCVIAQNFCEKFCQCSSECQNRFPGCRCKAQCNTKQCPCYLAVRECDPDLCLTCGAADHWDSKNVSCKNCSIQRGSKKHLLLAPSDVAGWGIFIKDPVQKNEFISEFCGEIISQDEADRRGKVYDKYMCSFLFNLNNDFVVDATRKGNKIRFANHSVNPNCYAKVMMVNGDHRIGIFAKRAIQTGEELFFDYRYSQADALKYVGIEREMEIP
Sequence of EZH2 Y641F mutant (PRC2 enzyme) (O75530 whole entry partner): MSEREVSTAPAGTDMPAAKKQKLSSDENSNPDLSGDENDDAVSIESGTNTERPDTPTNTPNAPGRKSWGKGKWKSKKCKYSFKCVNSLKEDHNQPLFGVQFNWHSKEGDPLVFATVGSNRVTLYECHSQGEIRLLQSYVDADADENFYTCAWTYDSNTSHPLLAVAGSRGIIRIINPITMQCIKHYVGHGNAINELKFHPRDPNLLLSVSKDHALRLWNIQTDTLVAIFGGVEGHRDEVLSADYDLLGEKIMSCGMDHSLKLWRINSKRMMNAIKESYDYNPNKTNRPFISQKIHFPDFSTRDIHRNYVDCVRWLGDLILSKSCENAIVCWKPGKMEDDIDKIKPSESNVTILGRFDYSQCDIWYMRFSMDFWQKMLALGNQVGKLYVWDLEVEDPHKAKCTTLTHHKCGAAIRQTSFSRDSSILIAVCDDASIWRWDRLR
Sequence of EZH2 Y641F mutant (PRC2 enzyme) (Q15022 whole entry partner): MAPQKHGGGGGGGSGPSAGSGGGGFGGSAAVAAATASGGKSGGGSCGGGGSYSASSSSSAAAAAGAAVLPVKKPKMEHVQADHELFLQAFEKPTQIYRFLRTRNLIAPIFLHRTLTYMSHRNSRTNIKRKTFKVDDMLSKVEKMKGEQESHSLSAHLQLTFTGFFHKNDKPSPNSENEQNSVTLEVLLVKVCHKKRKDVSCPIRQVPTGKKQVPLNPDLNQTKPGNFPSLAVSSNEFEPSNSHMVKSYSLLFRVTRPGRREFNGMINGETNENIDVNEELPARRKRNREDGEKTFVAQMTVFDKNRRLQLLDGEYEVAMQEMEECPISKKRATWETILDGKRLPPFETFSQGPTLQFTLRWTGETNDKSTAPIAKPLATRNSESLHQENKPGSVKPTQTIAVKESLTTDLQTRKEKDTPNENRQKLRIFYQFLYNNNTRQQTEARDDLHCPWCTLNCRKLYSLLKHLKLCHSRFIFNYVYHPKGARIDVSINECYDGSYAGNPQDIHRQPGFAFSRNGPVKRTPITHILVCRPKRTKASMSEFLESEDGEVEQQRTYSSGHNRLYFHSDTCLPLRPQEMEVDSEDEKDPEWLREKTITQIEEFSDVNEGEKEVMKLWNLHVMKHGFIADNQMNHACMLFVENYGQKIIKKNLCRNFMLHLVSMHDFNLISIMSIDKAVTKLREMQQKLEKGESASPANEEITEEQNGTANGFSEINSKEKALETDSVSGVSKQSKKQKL
Sequence of EZH2 Y641F mutant (PRC2 enzyme) (Q09028 whole entry partner): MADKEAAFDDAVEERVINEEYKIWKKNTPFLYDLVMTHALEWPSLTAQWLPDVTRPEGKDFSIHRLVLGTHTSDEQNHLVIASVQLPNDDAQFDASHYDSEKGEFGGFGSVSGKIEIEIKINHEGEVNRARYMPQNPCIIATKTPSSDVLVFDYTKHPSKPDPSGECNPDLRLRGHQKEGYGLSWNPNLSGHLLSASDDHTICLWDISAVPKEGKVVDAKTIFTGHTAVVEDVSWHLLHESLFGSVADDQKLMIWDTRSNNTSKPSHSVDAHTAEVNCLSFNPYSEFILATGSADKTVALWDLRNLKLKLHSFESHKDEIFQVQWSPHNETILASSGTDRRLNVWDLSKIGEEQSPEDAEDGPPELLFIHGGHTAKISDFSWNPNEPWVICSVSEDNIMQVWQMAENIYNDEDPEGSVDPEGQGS
Sequence of wild-type EZH2 (PRC2 enzyme) (Q15910 whole entry): as the sequence (Q15910 whole entry Y641F) above, with F641Y counted along it
Sequence of wild-type EZH2 (PRC2 enzyme) (O75530 whole entry partner): as the sequence (O75530 whole entry partner) above
Sequence of wild-type EZH2 (PRC2 enzyme) (Q15022 whole entry partner): as the sequence (Q15022 whole entry partner) above
Sequence of wild-type EZH2 (PRC2 enzyme) (Q09028 whole entry partner): as the sequence (Q09028 whole entry partner) above

Consider `CCN(c1cc(Cl)cc(C(=O)NCc2c(C)[nH]n(C)c2=O)c1C)[C@@H]1COC[C@H]1O` (relative stereo) [Compound 41, 5-chloro-N-((2,5-dimethyl-3-oxo-2,3-dihydro-1H-pyrazol-4-yl)methyl)-3-(ethyl((trans)-4-hydroxytetrahydrofuran-3-yl)amino)-2-methylbenzamide], for which the IC50 in experiment [1] was 37200 nM; in experiment [2], more than 50000 nM; in experiment [3], 26200 nM.

For the compound `CCN(c1cc(Cl)cc(C(=O)NCc2c(C)[nH]n(C)c2=O)c1C)[C@@H]1COC[C@H]1OC` (relative stereo) [Compound 42, 5-chloro-N-((2,5-dimethyl-3-oxo-2,3-dihydro-1H-pyrazol-4-yl)methyl)-3-(ethyl((trans)-4-methoxytetrahydrofuran-3-yl)amino)-2-methylbenzamide], the IC50 was more than 50000 nM in experiment [1] and more than 20000 nM in experiment [4].

`CCN(c1cc(Cl)cc(C(=O)NCc2c(CCN(C)C)cc3n(c2=O)NCC3)c1C)[C@H]1CC[C@H](N(C)C)CC1` [Compound 1, 5-chloro-3-(((trans)-4-(dimethylamino)cyclohexyl)(ethyl)amino)-N-((5-(2-(dimethylamino)ethyl)-7-oxo-1,2,3,7-tetrahydropyrazolo[1,5-a]pyridin-6-yl)methyl)-2-methylbenzamide]: the midpoint of inhibition in experiment [4], the IC50, lay at 850 nM.

Turning to `CCN(c1cc(-c2ccc(OCCOC)cc2)cc(C(=O)NCc2c(C)[nH][nH]c2=O)c1C)[C@H]1CC[C@H](N(C)C)CC1` [Compound 30, 5-(((trans)-4-(dimethylamino)cyclohexyl)(ethyl)amino)-4′-(2-methoxyethoxy)-4-methyl-N-((5-methyl-3-oxo-2,3-dihydro-1H-pyrazol-4-yl)methyl)-[1,1′-biphenyl]-3-carboxamide], the IC50 was 24 nM in experiment [1], 29000 nM in experiment [2] and 7 nM in experiment [3].

As for `CCN(c1cc(Cl)cc(C(=O)NCc2c(C)[nH][nH]c2=O)c1C)[C@H]1CC[C@H](N(C)C)CC1` [Compound 32, 5-chloro-3-(ethyl((trans)-4-(dimethylamino)cyclohexyl)amino)-2-methyl-N-((5-methyl-3-oxo-2,3-dihydro-1H-pyrazol-4-yl)methyl]benzamide Formate], the IC50 was determined as 68 nM in experiment [1], 11500 nM in experiment [4], 15400 nM in experiment [2] and 15 nM in experiment [3].

In the case of `CCN(c1cc(Cl)cc(C(=O)NCc2c(C)[nH]n(C)c2=O)c1C)[C@H]1CC[C@H](N(C)C)CC1` [Compound 34, 5-chloro-N-((2,5-dimethyl-3-oxo-2,3-dihydro-1H-pyrazol-4-yl)methyl)-3-(((trans)-4-(dimethylamino)cyclohexyl)(ethyl)amino)-2-methylbenzamide], the IC50 in experiment [1] came out at 223 nM; in experiment [4], 6920 nM; in experiment [2], 18600 nM; in experiment [3], 110 nM.

In the case of `CCN(c1cc(-c2ccc(OCCOC)cc2)cc(C(=O)NCc2c(C)[nH]n(C)c2=O)c1C)[C@H]1CC[C@H](N(C)C)CC1` [Compound 35, N-((2,5-dimethyl-3-oxo-2,3-dihydro-1H-pyrazol-4-yl)methyl)-5-(((trans)-4-(dimethylamino)cyclohexyl)(ethyl)amino)-4′-(2-methoxyethoxy)-4-methyl-[1,1′-biphenyl]-3-carboxamide], the IC50 in experiment [1] was 267 nM; in experiment [4], more than 20000 nM; in experiment [2] it was 17900 nM; in experiment [3], 63 nM.

Take `CCn1[nH]c(C)c(CNC(=O)c2cc(Cl)cc(N(CC)[C@H]3CC[C@H](N(C)C)CC3)c2C)c1=O` [Compound 36, 5-chloro-3-(((trans)-4-(dimethylamino)cyclohexyl)(ethyl)amino)-N-((2-ethyl-5-methyl-3-oxo-2,3-dihydro-1H-pyrazol-4-yl)methyl)-2-methylbenzamide]: the IC50 in experiment [1] is 829 nM; in experiment [4], more than 20000 nM; in experiment [2], 7970 nM; in experiment [3], 114 nM.

As to `CCc1[nH]n(C)c(=O)c1CNC(=O)c1cc(Cl)cc(N(CC)[C@H]2CC[C@H](N(C)C)CC2)c1C` [Compound 38, 5-chloro-3-(((trans)-4-(dimethylamino)cyclohexyl)(ethyl)amino)-N-((5-ethyl-2-methyl-3-oxo-2,3-dihydro-1H-pyrazol-4-yl)methyl)-2-methylbenzamide], the IC50 in experiment [1] was 3370 nM; in experiment [4], more than 20000 nM; in experiment [2], 18100 nM; in experiment [3], 265 nM.

As to `CCN(c1cc(Cl)cc(C(=O)NCc2c(=O)[nH]n3cccnc23)c1C)[C@H]1CC[C@H](N(C)C)CC1` [Compound 51, 5-chloro-3-(((trans)-4-(dimethylamino)cyclohexyl)(ethyl)amino)-2-methyl-N-((2-oxo-1,2-dihydropyrazolo-[1,5-a]-pyrimidin-3-yl)methyl)benzamide], the figures for the IC50 in experiment [1], in experiment [4] and in experiment [3] were 2870 nM, more than 20000 nM and 573 nM, respectively.

Take `CCN(c1cc(Cl)cc(C(=O)NCc2c(C)n(C)[nH]c2=O)c1C)[C@H]1CC[C@H](N(C)CCOC)CC1` [Compound 55, 5-chloro-N-((1,5-dimethyl-3-oxo-2,3-dihydro-1H-pyrazol-4-yl)methyl)-3-(ethyl((trans)-4-((2-methoxyethyl)(methyl)amino)cyclohexyl)amino)-2-methylbenzamide]: the IC50 in experiment [1] stood at 695 nM; in experiment [2], 30600 nM; in experiment [3], 418 nM.

Turning to `CCCN(c1cc(-c2ccc(OCCOC)cc2)cc(C(=O)NCc2c(C)n(C)[nH]c2=O)c1C)[C@H]1CC[C@H](N(C)C)CC1` [Compound 58, N-((1,5-dimethyl-3-oxo-2,3-dihydro-1H-pyrazol-4-yl)methyl)-5-(((trans)-4-(dimethylamino)cyclohexyl)(propyl)amino)-4′-(2-methoxyethoxy)-4-methyl-[1,1′-biphenyl]-3-carboxamide], the results for the IC50 in experiment [1], in experiment [4] and in experiment [3] were 1540 nM, 14300 nM and 342 nM, respectively.

On to `CCN(c1cc(-c2ccc(OCCOC)cc2)cc(C(=O)NCc2c(C)n(C)[nH]c2=O)c1C)[C@H]1CC[C@H](N(C)C)CC1` [Compound 59, N-((1,5-dimethyl-3-oxo-2,3-dihydro-1H-pyrazol-4-yl)methyl)-5-(((trans)-4-(dimethylamino)cyclohexyl)(ethyl)amino)-4′-(2-methoxyethoxy)-4-methyl-[1,1′-biphenyl]-3-carboxamide], for which the IC50 in experiment [4] was more than 20000 nM; in experiment [2] it was more than 50000 nM.

Consider `CCN(c1cc(-c2ccc(OCCOC)cc2)cc(C(=O)NCc2c(C)n(C)[nH]c2=O)c1C)[C@H]1CC[C@H](N(C)CCOC)CC1` [Compound 60, N-((1,5-dimethyl-3-oxo-2,3-dihydro-1H-pyrazol-4-yl)methyl)-5-(ethyl((trans)-4-((2-methoxyethyl)(methyl)amino)cyclohexyl)amino)-4′-(2-methoxyethoxy)-4-methyl-[1,1′-biphenyl]-3-carboxamide], for which the IC50 was found to be 2110 nM in experiment [1], 13500 nM in experiment [4] and 695 nM in experiment [3].

Turning to `CCn1nc(OC)c(CNC(=O)c2cc(Cl)cc(N(CC)[C@H]3CC[C@H](N(C)Cc4cccc(OC)c4)CC3)c2C)c1C` [Compound 62, 5-chloro-3-(ethyl((trans)-4-((3-methoxybenzyl)-(methyl)-amino)-cyclohexyl)-amino)-N-((1-ethyl-3-methoxy-5-methyl-1H-pyrazol-4-yl)methyl)-2-methylbenzamide], the IC50 in experiment [1] was 745 nM; in experiment [2], more than 50000 nM; in experiment [3], 193 nM.

For the compound `CCN(c1cc(Cl)cc(C(=O)NCc2c(C)nn(C)c2OC)c1C)[C@H]1CC[C@H](N(C)C)CC1` [Compound 91, 5-chloro-N-((5-methoxy-1,3-dimethyl-1H-pyrazol-4-yl)methyl)-3-(((trans)-4-(dimethylamino)cyclohexyl)(ethyl)amino)-2-methylbenzamide], the IC50 in experiment [1] was 7450 nM; in experiment [2] it was more than 50000 nM; in experiment [3], 1170 nM.

Turning to `CCN(c1cc(Cl)cc(C(=O)NCc2c(N3CCCCC3)n(C)[nH]c2=O)c1C)[C@H]1CC[C@H](N(C)C)CC1` [Compound 93, 5-chloro-3-(ethyl[(trans)-4-(dimethylamino)cyclohexyl]amino)-2-methyl-N-([1-methyl-3-oxo-5-(piperidin-1-yl)-2,3-dihydro-1H-pyrazol-4-yl]methyl)benzamide], the values for the IC50 in experiment [1], in experiment [2] and in experiment [3] were 9.71 nM, 3550 nM and 14.4 nM, respectively.
